Experimental data: ChEMBL document CHEMBL1122513, “Synthesis and antiviral activity of carbocyclic analogues of 2'-deoxyribofuranosides of 2-amino-6-substituted-purines and of 2-amino-6-substituted-8-azapurines” (J Med Chem, 1984)
Values after ≈ are worked out from the molar mass of the structure shown.

System: Vaccinia virus
Assay: Concentration required to inhibit vaccinia virus induced cytopathogenic affects by 50%
Format: functional, Orthopoxvirus vaccinia
[1] = Orthopoxvirus vaccinia, read-out: MIC50

SMILES	MIC50	MIC50 [1]
Nc1ncnc2c1ncn2[C@@H]1C[C@H](CO)[C@@H](O)[C@@H]1O	9 µg/mL (≈ 33.9 µM)	9 µg/mL (≈ 33.9 µM)
OCC1CC(n2nnc3c(O)ncnc32)C(O)C1O (stereo not given)		467 µg/mL (≈ 1750 µM)
OCC1CC(n2cnc3c(O)ncnc32)C(O)C1O (stereo not given)		191 µg/mL (≈ 717 µM)
Nc1ccn([C@@H]2C[C@H](CO)[C@@H](O)[C@H]2O)c(=O)n1 (stereo in doubt; form 2)		57 µg/mL (≈ 236 µM)
